How the values were obtained:
[1] = buffer, pH 7.4
[2] = Intrinsic clearance in mouse liver microsomes at 0.5 uM after 30 mins in presence of NADPH by LC-MS/MS analysis; assay type: ADME, Microsome; settings: 0.5 h
physchem = settings: buffer, pH 7.4, logD
[3] = Intrinsic clearance in human liver microsomes at 0.5 uM after 30 mins in presence of NADPH by LC-MS/MS analysis; assay type: ADME, Microsome; settings: 0.5 h

logD [1]	CLH [2]	chromatographic logD (physchem)	CLH [3]	SMILES
3.38				CC1(c2ccc(C#N)cc2)NC(=O)N(CC(=NO)c2ccc(F)cc2F)C1=O (stereo in doubt; 43a)
	2.44 mL/min/g	3.78	< 0.4 mL/min/g	CC1(c2ccc(-n3cnnn3)cc2)NC(=O)N(CC(=O)c2ccc(F)cc2F)C1=O (stereo not given)
	1.78 mL/min/g	5.36	< 0.4 mL/min/g	CC1(c2ccc(OC(F)F)cc2)NC(=O)N(CC(=O)c2ccc(F)cc2F)C1=O (stereo not given)
	3.54 mL/min/g	3.94	< 0.4 mL/min/g	CC1(c2ccc(N3CCOC3=O)cc2)NC(=O)N(CC(=O)c2ccc(F)cc2F)C1=O (stereo not given)

Reference: ChEMBL document CHEMBL4382257, “Identification and Profiling of Hydantoins-A Novel Class of Potent Antimycobacterial DprE1 Inhibitors” (J Med Chem, 2018)
